Data set [1] is classed as physicochemical. Conditions: between pH 1 and 10; FIG. 2. As for the experimental part:
The stability of Compound 1 was determined by monitoring the concentration of Compound 1 in solution by liquid chromatography at various storage conditions. […] The solubility of Compound 1 between pH 1 and 10 was determined by quantitatively measuring the concentration of Compound 1 in solution at various pH conditions by liquid chromatography.

Another data set can be described thus: physchem. Particulars: water.

≈ marks a conversion by molar mass, not a printed value.

Broadly, the solubility is how much of the substance goes into solution per volume. Higher therefore signals much dissolved substance. Take `CCC(CC)COC(=O)[C@H](C)N[P@](=O)(OC[C@H]1O[C@@](C#N)(c2ccc3c(N)ncnn23)[C@H](O)[C@@H]1O)Oc1ccccc1` [Compound 1, (S)-2-ethylbutyl 2-(((S)-(((2R,3S,4R,5R)-5-(4-aminopyrrolo[2,1-f][1,2,4]triazin-7-yl)-5-cyano-3,4-dihydroxytetrahydrofuran-2-yl)methoxy)(phenoxy)phosphoryl)amino)propanoate]: the “solubility as a function of pH” value in data set [1] was “increases at or below pH 4”. The same molecule displayed a solubility in “physchem” of roughly 30 µg/mL (≈ 49.8 µM).

(Values after US11975017B2, “Compositions comprising an RNA polymerase inhibitor and cyclodextrin for treating viral infections” (priority 2017, dated 2024).)
